{"source": "patent US11001795B2", "about": "“In vitro gastrointestinal model comprising lamina propria-derived cells” (EMULATE, Inc., priority 2016, dated 2021)", "key": {"[1]": {"test_system": "Caco-2 epithelial cell layer", "type": "cell-based, human", "source_text": "See an exemplary permeability assay method in Example 4.\nEffects of resident leukocytes isolated from LP"}, "[2]": {"test_system": "Caco-2/HUVEC/LPDC microfluidic co-cultures", "test": "Cytokine and chemokine production in microfluidic co-cultures with LP derived cells", "type": "cell-based, human", "description": "An exemplary bacteria antigen used was PAM2CSK4. […] PAM2CSK4 refers to a synthetic diacylated lipopeptide.\nIn order to determine contributory factors to the trends in permeability changes observed by combinations of prednisone treatments as in Example 5, cytokine and chemokine production were measured from media samples obtained from the microfluidic cultures as described in Example 5. After an incubation time, media samples were extracted from the microfluidic device then used for determining amounts of cytokine and chemokine produced, such as IL-6 and IL-9 in FIG. 18A-B; IL-8 and G-CSF in FIG. 19A-B; GM-CSF and MCP-1 in FIG. 20A-B: MIP1b and PDGF-AB/BB in FIG. 21A-B; and RANTES in FIG. 22. Amounts of cytokine and chemokine protein are measure in pg/ml (picogram per milliliter)."}, "[3]": {"test_system": "TH1 and TH9 CD4+ T cell populations", "test": "Bacterial antigen stimulation of TH1 and TH9 populations on cell culture plates", "type": "cell-based, human", "description": "Purified human CD4+ cells in tissue culture media, comprising soluble anti-human CD28 mAb (e.g. PharMingen, San Diego, Calif.), were added to CD3 coated plastic tissue culture plates for non-antigen-specific activation. Co-stimulation of the CD3 transmembrane signaling complex and the T cell CD28 molecule results in nonantigen specific stimulation of the TCR (CD3). After three days of incubation, the default T cell population is considered a TH1 population. After three days of co-stimulation, with or without added cytokines, cells are pipetted out of the plates, the plates are washed with media or PBS to remove any remaining cells, then harvested cells are washed at least 3 times to remove cell fragments and culture reagents, prior to use of the activated T cell population for seeding microfluidic chips on Day 0 of the chip timeline.\nIn this example, a TH1 cell population was produced from a population of CD4+ T cells obtained from a sample of PBMCs. This population of CD4+ T cells were co-stimulated with soluble CD3 and CD28 antibodies without added cytokine stimulation for inducing differentiation of TH1 cells. Unlike the co-stimulation with soluble CD3 and CD28 antibodies in the presence of TGFB, IL-4, and IFNg cytokines for inducing differentiation of TH9 cells as described herein.\nA sample of each TH cell type was exposed to PAM2CSK4, then log 2 fold changes in protein expression of either pathway molecules or IL-9 were measured and compared to duplicate samples not treated with PAM2CSK4."}, "[4]": {"test_system": "Intestine On-Chip with TH1 or TH9 cells", "test": "Cytokine production in Intestine On-Chip seeded with plate-differentiated TH1 or TH9 cells", "type": "cell-based, human", "conditions": "for IL-10: TH9 populations; for IL-6 protein: untreated vs PAM2CSK4 treated with and without Tofacitinib", "source_text": "In this example, a TH1 cell population was produced from a population of mature/naive CD4+ T cells, as described in Example 7. This population of CD4+ T cells were co-stimulated with adhered CD3 and soluble CD28 antibodies, without added cytokines, for inducing differentiation of TH1 cells on plates. Unlike co-stimulation with adhered CD3 and soluble CD28 antibodies in the presence of TGFB, IL-4, and IFNg cytokines which induced differentiation of TH9 cells, as described herein. Thus, in this example, purified CD4+ T cell populations were plated into tissue culture plates for activation and differentiation into one selected T cell subtype, e.g. TH1 in one plate, and TH9 in another plate.\nIn order to further test whether PBMCs activated and differentiated with soluble factors were capable of inducing inflammation on chips, pro-inflammatory cytokine production was compared between untreated, PAM2CSK4 treated with and without Tofacitinib.\nExperiments were designed to evaluate whether anti-CD3 and anti-CD28 co-stimulatory activation (soluble reagents) on chip would stimulate on chip T cells (previously activated and differentiated on plates) to continue functioning as activated effector cells within the chip tissue microenvironment. Further, TH1 and TH9 T cell populations underwent testing for an exacerbated response (either tissue alterations or changes in the characteristics of the T cell population) to a specific antigen stimulation, e.g. PAM2CSK4 (TLR2) bacterial agonist, with or without additional co-stimulation (i.e. using soluble reagents). Stimulation on-chip was done as a treatment on Day 7 of culture.\nEvaluation of the effects of T-cell activation on the Intestine On-Chip by perfusion of soluble immune activating factors (anti-CD3 and anti-CD28) to the media is shown in FIGS. 36A-B-39A-C. In particular, activated T-cell subsets were evaluated for disease-specific cytokine production.\nT cell subsets were purified from PBMCs as described herein, then stimulated in tissue culture plates using plate bound CD3 and soluble CD28 antibodies."}, "[5]": {"test_system": "UC patient's resident immune cells", "test": "24 hour bacterial challenge of resident immune cells cultured on-plates, secreted cytokines", "type": "cell-based, human", "conditions": "immune cells from inflamed UC tissue, 24 hour challenge"}, "[6]": {"test_system": "Ulcerative Colitis patients", "conditions": "cited from earlier work"}, "[7]": {"conditions": "prednisone alone, non-inflamed LPDC"}, "[8]": {"conditions": "prednisone, inflamed LPDCs, with and without PAM2CSK4"}, "[9]": {"conditions": "prednisone, non-inflamed and inflamed LPDCs treated with PAM2CSK4"}}, "note": "Entries after “also recorded” stand apart in the source; their conditions may differ.", "data": [{"compound": "PAM2CSK4", "values": [{"measurement": "Permeability of Caco-2 epithelial cell layer", "setting": "[1]", "result": "increase in permeability"}, {"measurement": "Loss of barrier function", "setting": "[1]; PAM2CSK4 treatment, overnight incubation, 4 LP mil/ml", "result": "Loss of barrier function is shown"}, {"measurement": "IL-9 production, apical", "setting": "[2]; PAM2CSK4, 1 and 2 LP mil/ml", "result": "increased"}, {"measurement": "IL-9 production, basal", "setting": "[2]; PAM2CSK4, 4 LP mil/ml", "result": "higher level of IL-9 production"}, {"measurement": "IL-9 production", "setting": "[2]; PAM2CSK4, LP leukocyte co-cultures for each source", "result": "induce IL-9"}, {"measurement": "IL6 response", "setting": "[2]; PAM2CSK4, epithelial cells without LP", "result": "induce an IL6 response"}, {"measurement": "IL6 response", "setting": "[2]; PAM2CSK4, healthy LP leukocyte co-cultures", "result": "induce an IL6 response"}, {"measurement": "IL-6 production", "setting": "[2]; PAM2CSK4, inflamed LPDC samples", "result": "increased IL-6 production"}, {"measurement": "IL-6 production", "setting": "[2]; PAM2CSK4, non-inflamed LPDC samples", "result": "does not appear to have an effect"}, {"measurement": "IL-9 production", "setting": "[2]; PAM2CSK4, non-inflamed and inflamed UC LPDC co-cultures, over endogenous levels", "result": "significantly induced IL-9 production"}, {"measurement": "IL-6 production", "setting": "[2]; PAM2CSK4 at 1, 2 and 4 LP mil/ml vs co-cultures with no PAM2CSK4", "result": "higher level of IL-6 production"}, {"measurement": "Concentration of cytokine protein signaling", "setting": "[3]; PAM2CSK4, TH1 (CD) and TH9 (UC) cells on-plates", "result": "increases in the concentration of cytokine protein signaling"}, {"measurement": "IL-9", "setting": "[3]; PAM2CSK4 stimulation, TH1 populations", "result": "measurable; also recorded: did significantly increase"}, {"measurement": "IRF4", "setting": "[3]; PAM2CSK4 stimulation, TH1 populations, log 2 fold change", "result": "measurable"}, {"measurement": "IL-9, or IL-9 activation factors, log 2 fold changes", "setting": "[3]; PAM2CSK4 stimulation, TH9 populations in tissue culture plate", "result": "did not significantly increase"}, {"measurement": "IL-10", "setting": "[4]; unstimulated vs Pam stimulated", "result": "no insignificant differences"}, {"measurement": "IL-8", "setting": "[4]; antigen specific stimulation (PAM2CSK4) on-chip", "result": "increased"}, {"measurement": "IL-6 protein", "setting": "[4]", "result": "no significant differences"}, {"measurement": "Response (secreted cytokines) to PAM2CSK4", "setting": "[5]", "result": "stronger response"}, {"measurement": "Avg. Z Height (z-arrow) of Caco-2 epithelial layer", "setting": "Caco-2 epithelial layer", "result": 84, "unit": "um+/−11"}]}, {"compound": "Tofacitinib (citrate)", "values": [{"measurement": "IL-10", "setting": "[4]; mixture of PAM2CSK4 and Tofacitinib vs unstimulated cells", "result": "induced significant amounts"}, {"measurement": "IL-6 protein", "setting": "[4]", "result": "no significant differences"}]}, {"compound": "C[C@]12C=CC(=O)C=C1CC[C@@H]1[C@@H]2C(=O)C[C@@]2(C)[C@H]1CC[C@]2(O)C(=O)CO", "note": "[prednisone]", "values": [{"measurement": "PDGF-AA/BB production", "setting": "[2]; prednisone alone", "result": "did not appear to be a reduction in PDGF-AA/BB"}, {"measurement": "IL-8 production", "setting": "[2]; prednisone alone or PAM2CSK4, non-inflamed LPDC", "result": "did not appear to be a reduction in IL-8"}, {"measurement": "GM-CSF production", "setting": "[2]; [7]", "result": "did not appear to be a reduction in GM-CSF"}, {"measurement": "MCP-1 production", "setting": "[2]; [7]", "result": "did not appear to be a reduction in MCP-1"}, {"measurement": "GM-CSF production", "setting": "[2]; [8]", "result": "reduced GM-CSF production"}, {"measurement": "IL-8 production", "setting": "[2]; [8]", "result": "trend for reducing IL-8 production"}, {"measurement": "MCP-1 production", "setting": "[2]; [8]", "result": "reduced MCP-1 production"}, {"measurement": "IL-6 production", "setting": "[2]; prednisone, inflamed UC LPDC, endogenous or PAM2CSK4 induced", "result": "reduce IL-6 production"}, {"measurement": "IL-6 production", "setting": "[2]; prednisone, non-inflamed LPDCs", "result": "does not appear to have an effect"}, {"measurement": "PDGF-AA/BB production", "setting": "[2]; prednisone, non-inflamed LPDCs (printed in the MIP-1b section)", "result": "trend for reducing PDGF-AA/BB production"}, {"measurement": "MIP-1b production", "setting": "[2]; prednisone, non-inflamed and inflamed LPDCs (stated in heading only)", "result": "Tends to Reduce MIP-1b Production"}, {"measurement": "PDGF-AA/BB production", "setting": "[2]; [9]", "result": "trend for reducing PDGF-AA/BB production"}, {"measurement": "RANTES production", "setting": "[2]; [9]", "result": "trend for reducing RANTES production"}, {"measurement": "IL-9 production", "setting": "[2]; prednisone, non-inflamed and inflamed UC LPDC, regardless of PAM2CSK4", "result": "production is reduced; also recorded: significantly reduced"}, {"measurement": "G-CSF production", "setting": "[2]; prednisone, non-inflamed or inflamed LPDCs, with and without PAM2CSK4", "result": "trend for reducing G-CSF production"}, {"measurement": "Inflammatory responses (secreted cytokines) to PAM2CSK4 treatment", "setting": "[2]; prophylactic prednisone on-chip, noninflamed and inflamed UC resident immune cells", "result": "suppresses the inflammatory responses"}, {"measurement": "Treated patients non-responsive", "setting": "[6]; Ulcerative Colitis patients", "result": "around 16%"}, {"measurement": "Treated patients with full remission", "setting": "[6]; Ulcerative Colitis patients", "result": 54, "unit": "%"}, {"measurement": "Treated patients with partial remission", "setting": "[6]; Ulcerative Colitis patients", "result": 30, "unit": "%"}, {"measurement": "Undesirable Side Effects", "setting": "[6]; in vivo", "result": "increased Risk of infection, Weight gain, Hyperglycemia, Hypertension, Bone loss"}]}]}
